Laboratory results reported in the NIST ThermoML archive (doi:10.1016/j.fluid.2005.12.016).

Test: osmotic coefficient (dimensionless); mn = molality of the nth substance listed, in mol/kg
Conditions: 298.15 K, 101 kPa, Liquid, isopiestic method

OC[C@@H](O)[C@@H](O)CO [meso-1,2,3,4-butanetetrol] + O
Conditions | osmotic coefficient
m1 = 0.2173 | 1.0019
m1 = 0.2196 | 1.0019
m1 = 0.5657 | 1.011
m1 = 0.5662 | 1.011
m1 = 0.7365 | 1.014
m1 = 0.74 | 1.014
m1 = 0.9458 | 1.017
m1 = 1.113 | 1.019
m1 = 1.114 | 1.019

CC(O)CCO (stereo not given) [1,3-butanediol] + O
Conditions | osmotic coefficient
m1 = 0.2289 | 0.9766
m1 = 0.7849 | 0.9509
m1 = 1.051 | 0.9416
m1 = 2.968 | 0.9042
m1 = 2.969 | 0.9042
m1 = 4.186 | 0.8953
m1 = 4.197 | 0.8953

OCCC(O)CO (stereo not given) [1,2,4-butanetriol] + O
Conditions | osmotic coefficient
m1 = 0.7526 | 0.9857
m1 = 1.34 | 0.9912
m1 = 1.929 | 0.9968
m1 = 2.745 | 1.0059
m1 = 2.8 | 1.0065
m1 = 3.691 | 1.019
m1 = 5.916 | 1.062

CCC(O)CO (stereo not given) [1,2-butanediol] + O
Conditions | osmotic coefficient
m1 = 0.2302 | 0.9585
m1 = 0.803 | 0.9286
m1 = 0.8128 | 0.9282
m1 = 1.046 | 0.9205
m1 = 1.056 | 0.9202
m1 = 2.093 | 0.8967
m1 = 3.038 | 0.8831
m1 = 3.044 | 0.8831
m1 = 4.304 | 0.8709

CC(O)C(C)O (stereo not given) [2,3-butanediol] + O
Conditions | osmotic coefficient
m1 = 0.6071 | 0.9429
m1 = 0.8087 | 0.9359
m1 = 1.995 | 0.913
m1 = 2.96 | 0.9043

OCCCCO [1,4-butanediol] + O
Conditions | osmotic coefficient
m1 = 0.2252 | 0.977
m1 = 0.778 | 0.9474
m1 = 0.7931 | 0.9467
m1 = 1.054 | 0.9349
m1 = 2.148 | 0.892
m1 = 2.158 | 0.8916
m1 = 3.12 | 0.8619
m1 = 4.499 | 0.8341
m1 = 4.501 | 0.8341
